From the NIST ThermoML archive (doi:10.1021/je100835n)
± gives the expanded uncertainty stated by the source.

Details: Liquid, Gas chromatography

SMILES	vapor or sublimation pressure (308.15 K) [kPa]	vapor or sublimation pressure (318.15 K) [kPa]	vapor or sublimation pressure (328.15 K) [kPa]	vapor or sublimation pressure (338.15 K) [kPa]	vapor or sublimation pressure (348.15 K) [kPa]	vapor or sublimation pressure (358.15 K) [kPa]	vapor or sublimation pressure (368.15 K) [kPa]	vapor or sublimation pressure (378.15 K) [kPa]	vapor or sublimation pressure (388.15 K) [kPa]	vapor or sublimation pressure (398.15 K) [kPa]	vapor or sublimation pressure (408.15 K) [kPa]	vapor or sublimation pressure (418.15 K) [kPa]	vapor or sublimation pressure (428.15 K) [kPa]	vapor or sublimation pressure (438.15 K) [kPa]
C[Si]1(C)O[Si](C)(C)O[Si](C)(C)O[Si](C)(C)O[Si](C)(C)O1 [decamethylcyclopentasiloxane]	0.04458 ± 0.0095	0.09293 ± 0.02	0.1853 ± 0.039	0.3545 ± 0.075	0.6537 ± 0.14	1.165 ± 0.25	2.011 ± 0.43	–	–	–	–	–	–	–
C[Si]1(C)O[Si](C)(C)O[Si](C)(C)O[Si](C)(C)O[Si](C)(C)O[Si](C)(C)O1 [dodecamethylcyclohexasiloxane]	–	–	–	0.04948 ± 0.01	0.09584 ± 0.02	0.1789 ± 0.038	0.3228 ± 0.069	0.5646 ± 0.12	0.9595 ± 0.2	1.588 ± 0.34	2.563 ± 0.54	4.044 ± 0.86	–	–
C[Si](C)(C)O[Si](C)(C)O[Si](C)(C)O[Si](C)(C)O[Si](C)(C)C [dodecamethylpentasiloxane]	–	–	–	0.09498 ± 0.02	0.1719 ± 0.036	0.3011 ± 0.064	0.5114 ± 0.11	0.8448 ± 0.18	1.36 ± 0.29	2.137 ± 0.45	3.284 ± 0.7	–	–	–
C[Si]1(C)O[Si](C)(C)O[Si](C)(C)O[Si](C)(C)O[Si](C)(C)O[Si](C)(C)O[Si](C)(C)O[Si](C)(C)O1 [hexadecamethylcyclooctasiloxane]	–	–	–	0.002101 ± 0.00045	0.004912 ± 0.001	0.01095 ± 0.0023	0.02337 ± 0.005	0.04791 ± 0.01	0.09466 ± 0.02	0.1807 ± 0.038	0.3344 ± 0.071	0.6006 ± 0.13	–	–
C[Si]1(C)O[Si](C)(C)O[Si](C)(C)O[Si](C)(C)O[Si](C)(C)O[Si](C)(C)O[Si](C)(C)O[Si](C)(C)O[Si](C)(C)O[Si](C)(C)O1 [icosamethylcyclodecasiloxane]	–	–	–	–	–	0.0008201 ± 0.00017	0.002003 ± 0.00042	0.004666 ± 0.00099	0.01041 ± 0.0022	0.02229 ± 0.0047	0.046 ± 0.0098	0.09169 ± 0.019	–	–
C[Si]1(C)O[Si](C)(C)O[Si](C)(C)O[Si](C)(C)O[Si](C)(C)O[Si](C)(C)O[Si](C)(C)O[Si](C)(C)O[Si](C)(C)O1 [octadecamethylcyclononasiloxane]	–	–	–	0.0004734 ± 0.0001	0.0012 ± 0.00025	0.002888 ± 0.00061	0.006628 ± 0.0014	0.01455 ± 0.0031	0.03069 ± 0.0065	0.06234 ± 0.013	0.1223 ± 0.026	0.2323 ± 0.049	–	–
C[Si]1(C)O[Si](C)(C)O[Si](C)(C)O[Si](C)(C)O1 [octamethylcyclotetrasiloxane]	0.2359 ± 0.05	0.4269 ± 0.091	0.7452 ± 0.16	1.259 ± 0.27	2.063 ± 0.44	3.289 ± 0.7	5.113 ± 1.1	–	–	–	–	–	–	–
C[Si]1(C)O[Si](C)(C)O[Si](C)(C)O[Si](C)(C)O[Si](C)(C)O[Si](C)(C)O[Si](C)(C)O1 [tetradecamethylcycloheptasiloxane]	–	–	–	0.01 ± 0.0021	0.0213 ± 0.0045	0.04349 ± 0.0092	0.08542 ± 0.018	0.1619 ± 0.034	0.2968 ± 0.063	0.528 ± 0.11	0.9129 ± 0.19	1.538 ± 0.33	–	–
C[Si](C)(C)O[Si](C)(C)O[Si](C)(C)O[Si](C)(C)O[Si](C)(C)O[Si](C)(C)C [tetradecamethylhexasiloxane]	–	–	–	0.01845 ± 0.0039	0.03767 ± 0.008	0.07392 ± 0.016	0.1398 ± 0.03	0.2557 ± 0.054	0.4533 ± 0.096	0.7809 ± 0.17	1.31 ± 0.28	2.143 ± 0.45	3.427 ± 0.73	5.364 ± 1.1

The next lines start with the values.

vapor or sublimation pressure (308.15 K) [kPa]	vapor or sublimation pressure (318.15 K) [kPa]	vapor or sublimation pressure (328.15 K) [kPa]	vapor or sublimation pressure (338.15 K) [kPa]	vapor or sublimation pressure (348.15 K) [kPa]	vapor or sublimation pressure (358.15 K) [kPa]	vapor or sublimation pressure (368.15 K) [kPa]	vapor or sublimation pressure (378.15 K) [kPa]	vapor or sublimation pressure (388.15 K) [kPa]	vapor or sublimation pressure (398.15 K) [kPa]	vapor or sublimation pressure (408.15 K) [kPa]	vapor or sublimation pressure (418.15 K) [kPa]	vapor or sublimation pressure (428.15 K) [kPa]	vapor or sublimation pressure (438.15 K) [kPa]	SMILES
–	–	–	–	–	–	0.0007152 ± 0.00015	0.001861 ± 0.00039	0.00461 ± 0.00098	0.01091 ± 0.0023	0.02475 ± 0.0053	0.054 ± 0.011	0.1136 ± 0.024	0.231 ± 0.049	C[Si](C)(C)O[Si](C)(C)O[Si](C)(C)O[Si](C)(C)O[Si](C)(C)O[Si](C)(C)O[Si](C)(C)O[Si](C)(C)O[Si](C)(C)O[Si](C)(C)C [docosamethyldecasiloxane]
–	–	–	–	0.0004156 ± 8.8e-05	0.001098 ± 0.00023	0.002752 ± 0.00058	0.006569 ± 0.0014	0.015 ± 0.0032	0.03284 ± 0.007	0.0692 ± 0.015	0.1407 ± 0.03	0.2769 ± 0.059	0.5281 ± 0.11	C[Si](C)(C)O[Si](C)(C)O[Si](C)(C)O[Si](C)(C)O[Si](C)(C)O[Si](C)(C)O[Si](C)(C)O[Si](C)(C)O[Si](C)(C)C [eicosamethylnonasiloxane]
–	–	–	–	–	–	–	–	0.0004593 ± 9.7e-05	0.001256 ± 0.00027	0.00327 ± 0.00069	0.008134 ± 0.0017	0.01939 ± 0.0041	0.04441 ± 0.0094	C[Si](C)(C)O[Si](C)(C)O[Si](C)(C)O[Si](C)(C)O[Si](C)(C)O[Si](C)(C)O[Si](C)(C)O[Si](C)(C)O[Si](C)(C)O[Si](C)(C)O[Si](C)(C)O[Si](C)(C)C [hexacosamethyldodecasiloxane]
–	–	–	0.003586 ± 0.00076	0.008232 ± 0.0017	0.01804 ± 0.0038	0.03789 ± 0.008	0.07651 ± 0.016	0.149 ± 0.032	0.2806 ± 0.06	0.5124 ± 0.11	0.909 ± 0.19	1.57 ± 0.33	2.645 ± 0.56	C[Si](C)(C)O[Si](C)(C)O[Si](C)(C)O[Si](C)(C)O[Si](C)(C)O[Si](C)(C)O[Si](C)(C)C [hexadecamethylheptasiloxane]
–	–	–	–	–	–	–	–	–	0.0004326 ± 9.2e-05	0.001205 ± 0.00026	0.003194 ± 0.00068	0.008092 ± 0.0017	0.01965 ± 0.0042	C[Si](C)(C)O[Si](C)(C)O[Si](C)(C)O[Si](C)(C)O[Si](C)(C)O[Si](C)(C)O[Si](C)(C)O[Si](C)(C)O[Si](C)(C)O[Si](C)(C)O[Si](C)(C)O[Si](C)(C)O[Si](C)(C)C [octacosamethyltridecasiloxane]
–	–	–	0.0007271 ± 0.00015	0.001846 ± 0.00039	0.004449 ± 0.00094	0.01022 ± 0.0022	0.02248 ± 0.0048	0.04747 ± 0.01	0.09653 ± 0.02	0.1896 ± 0.04	0.3605 ± 0.077	0.6654 ± 0.14	1.194 ± 0.25	C[Si](C)(C)O[Si](C)(C)O[Si](C)(C)O[Si](C)(C)O[Si](C)(C)O[Si](C)(C)O[Si](C)(C)O[Si](C)(C)C [octadecamethyloctasiloxane]
–	–	–	–	–	–	–	0.0005391 ± 0.00011	0.001446 ± 0.00031	0.003689 ± 0.00078	0.008993 ± 0.0019	0.02101 ± 0.0045	0.04716 ± 0.01	0.102 ± 0.022	C[Si](C)(C)O[Si](C)(C)O[Si](C)(C)O[Si](C)(C)O[Si](C)(C)O[Si](C)(C)O[Si](C)(C)O[Si](C)(C)O[Si](C)(C)O[Si](C)(C)O[Si](C)(C)C [tetracosamethylundecasiloxane]
